Measurements published in US20110229412A1, “ANIMAL MODEL OF CENTRAL NEUROPATHIC PAIN AND MEHTODS OF MAKING AND USING THE SAME” (priority 2008, published 2011).
“Also recorded” adds a separate entry of the source.

Test system: rats having DREZs avulsed at T13/L1
Assay: Allodynia (von Frey test) in rat T13/L1 DREZ avulsion model of central neuropathic pain
Format: in vivo
Method: Rats were anesthetized using isoflurane. Under aseptic condition, the skin was incised in the midline along the posterior thoracolumbar region. The paravertebral muscles were retracted laterally to expose the posterior aspect of the spinal laminae. Laminectomies were performed and the dura mater then incised along the midline to expose the dorsal rootlets of T13 and L1. The dorsal rootlets of T13 and L1 were then avulsed out of the spinal cord on the left side using micronstrumentation. Hemostasis was obtained and a layer of gelfoam placed over the dura. The wound was closed in layers. Perioperative antibiotics were administered in prophylaxis against infection. Subject rats were tested for allodynia of the hindpaws with the von Frey hair test, beginning day one post surgery and continuing daily over the subsequent four weeks. Rat animal model was generated similar to above. In one experiment, DREZ avulsion was unilateral (FIG. 2). In one experiment, DREZ avulsion was bilateral (FIG. 3). Ibudilast was delivered intrathecally daily in a corn oil carrier, with sham controls receiving only the corn oil. […] AV411 was administered to animals avulsed at the T13 and L1 dorsal root entry zones. The compound AV411 was administered to animals subject to the T13 and L1 hind paws. […] The reversal begins after 5-6 injections and continues to reverse behavior until day 33. The contralateral paw began to resolve at day 28 and the ipsilateral paw was still sensitive at day 33. […] Response thresholds on the von Frey test were recorded prior to and across a timecourse after avulsion surgery. Beginning on Day 12 post-surgery, rats (n=4/group) received once daily s.c. injections of either the glial activation inhibitor AV411/Ibudilast (Sigma; 5-mg/kg or 10-mg/kg) or equivolume vehicle (corn oil; 0.5-ml/kg). Daily drug treatment and intermittent behavioral testing continued through 33 days after surgery.

## CC(C)C(=O)c1c(C(C)C)nn2ccccc12 [AV411, 2-methyl-1-(2-propan-2-ylpyrazolo[1,5-a]pyridin-3-yl)propan-1-one]
Once daily s.c. 5-mg/kg or 10-mg/kg from Day 12 post-surgery
  onset of reversal of allodynia: 5-6 injections
Once daily s.c. 5-mg/kg or 10-mg/kg from Day 12 post-surgery through day 33
  effect on allodynia induced by unilateral T13/L1 dorsal root avulsion (von Frey test): reversed allodynia; also recorded: induces bilateral mechanical allodynia; also recorded: reverses bilateral allodynia
Once daily s.c. 5-mg/kg vs 10-mg/kg
  comparison of the 5 mg and 10 mg dose on allodynia: not differences between the 5 mg and 10 mg dose
Once daily s.c. from Day 12 post-surgery, days after surgery
  day until which reversal of behavior continues: ≤ 33 days
Unilateral (FIG. 2) or bilateral (FIG. 3) DREZ avulsion, delivered intrathecally daily in corn oil carrier
  effect on allodynia in the model: decreases allodynia
